Results as given in ChEMBL document CHEMBL5252582, “Glyclauxins A-E: Dimeric Oxaphenalenone Aminoglycosides from an Australian Wasp Nest-Derived Fungus Talaromyces sp. CMB-MW102” (J Nat Prod, 2023).

Legend:
NCI-H460 = test: Cytotoxicity against human NCI-H460 cells assessed as cell growth inhibition incubated for 48 hrs by MTT assay; assay type: functional, cell-based; details: NCI-H460, 48 h
SW-620 = test: Cytotoxicity against human SW620 cells assessed as cell growth inhibition incubated for 48 hrs by MTT assay; assay type: functional, cell-based; details: SW-620, 48 h
Candida albicans = test: Antifungal activity against Candida albicans ATCC10231 assessed as fungal growth inhibition incubated for 24 hrs by spectrophotometric analysis; assay type: functional, organism-based; details: ATCC10231, 24 h
Staphylococcus aureus = test: Antibacterial activity against gram positive Staphylococcus aureus ATCC25923 assessed as bacterial growth inhibition incubated for 24 hrs by spectrophotometric analysis; assay type: functional, organism-based; details: ATCC25923, 24 h
Escherichia coli = test: Antibacterial activity against gram negative Escherichia coli ATCC11775 assessed as bacterial growth inhibition incubated for 24 hrs by spectrophotometric analysis; assay type: functional, organism-based; details: ATCC11775, 24 h

Measured: IC50

Cc1cc(O)c2c3c1C(=O)[C@@H]1C4=C(C(=O)c5cn([C@H]6CO[C@H](CO)[C@@H](O)[C@@H]6O)c(=O)c6c(O)cc(C)c4c56)[C@@]3(COC2=O)[C@H]1O
> 30 µM: all assays above

CO[C@@]12c3c(C)cc(O)c4c(=O)n([C@H]5CO[C@H](CO)[C@@H](O)[C@@H]5O)cc(c34)C(=O)[C@@H]1[C@]13COC(=O)c4c(O)cc(C)c(c41)C(=O)[C@H]2[C@@H]3OC(C)=O
> 30 µM: all assays above

CO[C@@]12c3c(C)cc(O)c4c(=O)n([C@H]5CO[C@H](CO)[C@@H](O)[C@@H]5O)cc(c34)C(=O)[C@@H]1[C@]13COC(=O)c4c(O)cc(C)c(c41)C(=O)[C@H]2[C@@H]3O
> 30 µM: all assays above

CC(=O)OC[C@H]1OC[C@H](n2cc3c4c(c(C)cc(O)c4c2=O)C2=C(C3=O)[C@]34COC(=O)c5c(O)cc(C)c(c53)C(=O)[C@H]2[C@@H]4OC(C)=O)[C@@H](O)[C@@H]1O
> 30 µM: all assays above

CO[C@@]12c3c(C)cc(O)c4c(=O)occ(c34)C(=O)[C@@H]1[C@]13COC(=O)c4c(O)cc(C)c(c41)C(=O)C2[C@@H]3OC(C)=O
> 30 µM: all assays above

CC(=O)O[C@H]1[C@@H]2C(=O)c3c(C)cc(O)c4c3[C@@]1(COC4=O)C1=C2c2c(C)cc(O)c3c(=O)n([C@H]4CO[C@H](CO)[C@@H](O)[C@@H]4O)cc(c23)C1=O
> 30 µM: all assays above
